Assay results reported in patent US20070004039A1, “Immortalized hepatocytes” (Multicell Technologies, Inc., priority 2003, published 2007).
Where two headings read alike, the source gives them in different places.

Key:
[1] = tested on: Fa2N-4 cells; assay: α-GST release toxicity test in Fa2N-4 cells (FIG. 22); conditions: 72-hour exposure, up to 100 μM
[2] = tested on: Fa2N-4 cells and primary human hepatocytes; assay: Toxicity by LDH release and resazurin reduction, Fa2N-4 cells compared with primary human hepatocytes; conditions: Same or Different toxicity response in the two cell types
[3] = tested on: CYP3A4
[4] = tested on: CYP1A2; conditions: cited from earlier work
[5] = tested on: UGT1A; assay: Invader assay UGT1A mRNA induction in Fa2N-4 cells; type: cell-based, human; conditions: 48 hours
[6] = tested on: CYP1A2
[7] = tested on: Fa2N-4 cells and primary human hepatocytes
[8] = tested on: albumin; assay: Effect of dexamethasone on albumin secretion by Fa2N-4 cells (ELISA); type: cell-based, human; conditions: Fa2N-4 (passage 32); dexamethasone 1.0 μM; 48 hrs
[9] = tested on: CYP1A2; assay: CYP1A2 activity induction in Fa2N-4 cells (phenacetin, LC/MS/MS); type: cell-based, human
[10] = tested on: CYP3A4; conditions: human
[11] = tested on: CYP2B6; conditions: cited from earlier work
[12] = tested on: MDR1 (P-glycoprotein); assay: Invader assay MDR1 mRNA induction in Fa2N-4 cells; type: cell-based, human; conditions: 48 hours
[13] = tested on: CYP3A4; conditions: human; remark: listed apart in the source
[14] = activity based on 7-ethoxy-4-trifluoromethylcoumarin O-dealkylation
[15] = activity based on S-mephenytoin N-demethylation

Cc1ccc2cc3c(ccc4ccccc43)c3c2c1CC3 [3-Methylcholanthrene]
release of α-GST into the medium [1]: caused a loss of membrane integrity
Cellular Response (Fa2N-4 cells compared with primary human hepatocytes) [2]: Same

O=c1cc(-c2ccccc2)oc2ccc3ccccc3c12 [BNF, β-naphthoflavone]
expression of CYP3A4 protein (immunoblot) [3]: does not induce CYP3A4 protein expression
Human hepatocytes Average induction, CYP1A2 [4]: 13 fold
Human hepatocytes Median induction, CYP1A2 [4]: 8.4 fold
Human hepatocytes induction (range), CYP1A2 [4]: (2-56) fold
Primary cells Fold-increase, CYP1A2 ([4]; hepatocytes): 13 fold
UGT1A mRNA induction [5]: 2 fold
Fa2N-4 cells Fold-increase, CYP1A2 [6]: 1.5 fold

c1ccc2c(c1)cc1ccc3cccc4ccc2c1c34 [Benzo[a]pyrene]
Cellular Response (Fa2N-4 cells compared with primary human hepatocytes) [7]: Different
Non-toxic Compound / Toxic Compound [7]: Toxic
sensitivity of Fa2N-4 cells relative to primary hepatocytes [7]: more sensitive than primary hepatocytes

NC(=O)N1c2ccccc2C=Cc2ccccc21 [Carbamazepine]
Cellular Response (Fa2N-4 cells compared with primary human hepatocytes) [7]: Same
Non-toxic Compound / Toxic Compound [7]: Carbamazepine

CC1(COc2ccc(CC3SC(=O)NC3=O)cc2)CCCCC1 (stereo not shown) [Ciglitazone]
Cellular Response (Fa2N-4 cells compared with primary human hepatocytes) [7]: Same
Non-toxic Compound / Toxic Compound [7]: Ciglitazone

C[C@@H]1C[C@H]2[C@@H]3CCC4=CC(=O)C=C[C@]4(C)[C@@]3(F)[C@@H](O)C[C@]2(C)[C@@]1(O)C(=O)CO [Dexamethasone]
Albumin [8]: 100.0 µg/mL

O=C1Nc2ccc(Cl)cc2[C@@](C#CC2CC2)(C(F)(F)F)O1 [Efavirenz]
Cellular Response (Fa2N-4 cells compared with primary human hepatocytes) [7]: Same
Non-toxic Compound / Toxic Compound [7]: Efavirenz

NC(=O)OCC(COC(N)=O)c1ccccc1 [Felbamate]
Cellular Response (Fa2N-4 cells compared with primary human hepatocytes) [7]: Same
Non-toxic Compound / Toxic Compound [7]: Felbamate

Cc1c(OCC(F)(F)F)ccnc1C[S+]([O-])c1nc2ccccc2[nH]1 (stereo not shown) [Lansoprazole]
Cellular Response (Fa2N-4 cells compared with primary human hepatocytes) [7]: Same
Non-toxic Compound / Toxic Compound [7]: Lansoprazole

CC1=CC(=O)c2ccccc2C1=O [Menadione]
Cellular Response (Fa2N-4 cells compared with primary human hepatocytes) [7]: Different
Non-toxic Compound / Toxic Compound [7]: Toxic
sensitivity of Fa2N-4 cells relative to primary hepatocytes [7]: less sensitive

CN(Cc1cnc2nc(N)nc(N)c2n1)c1ccc(C(=O)N[C@@H](CCC(=O)O)C(=O)O)cc1 [Methotrexate]
Cellular Response (Fa2N-4 cells compared with primary human hepatocytes) [7]: Same
Non-toxic Compound / Toxic Compound [7]: Methotrexate

COc1ccc2[nH]c([S+]([O-])Cc3ncc(C)c(OC)c3C)nc2c1 (stereo not shown) [Omeprazole]
induction of CYP1A2 activity ([9]; Fa2N-4, 6-well plates, 100 μM omeprazole): marked induction
CYP1A2 activity induction over control ([9]; Fa2N-4, 6-, 12-, 24- and 96-well format, all cases): at least 9 fold
Fa2N-4 Average induction, CYP1A2 ([9]; Fa2N-4 cells): 20 fold
Fa2N-4 induction (range), CYP1A2 ([9]; Fa2N-4 cells): (9.3-29) fold
Cellular Response (Fa2N-4 cells compared with primary human hepatocytes) [7]: Same
Non-toxic Compound / Toxic Compound [7]: Omeprazole

CCC1(c2ccccc2)C(=O)NC(=O)NC1=O [Phenobarbital]
Cellular Response (Fa2N-4 cells compared with primary human hepatocytes) [2]: Same
production of the 6-β testosterone metabolite [10]: weaker CYP3A4 inducers

O=C1NC(=O)C(c2ccccc2)(c2ccccc2)N1 [Phenytoin]
Cellular Response (Fa2N-4 cells compared with primary human hepatocytes) [7]: Same
Non-toxic Compound / Toxic Compound [7]: Phenytoin

CCCN(CCC)S(=O)(=O)c1ccc(C(=O)O)cc1 [Probenicid]
Cellular Response (Fa2N-4 cells compared with primary human hepatocytes) [7]: Same
Non-toxic Compound / Toxic Compound [7]: Probenicid

CO[C@H]1/C=C/O[C@@]2(C)Oc3c(C)c(O)c4c(O)c(c(/C=N/N5CCN(C)CC5)c(O)c4c3C2=O)NC(=O)/C(C)=C\C=C\[C@H](C)[C@H](O)[C@@H](C)[C@@H](O)[C@@H](C)[C@H](OC(C)=O)[C@@H]1C [Rifampin]
Human hepatocytes Average induction, CYP2B6 [11, 14]: 4.1 fold
Human hepatocytes Median induction, CYP2B6 [11, 14]: 2.9 fold
Human hepatocytes induction (range), CYP2B6 [11, 14]: ≤ 14 fold
Human hepatocytes Average induction, CYP2B6 [11, 15]: 13 fold
Human hepatocytes Median induction, CYP2B6 [11, 15]: 8.5 fold
Human hepatocytes induction (range), CYP2B6 [11, 15]: ≤ 71 fold
Cellular Response (Fa2N-4 cells compared with primary human hepatocytes) [7]: Same
MDR1 (P-glycoprotein) mRNA induction [12]: 3 fold

C=C(C)[C@H]1Cc2c(ccc3c2O[C@@H]2COc4cc(OC)c(OC)cc4[C@@H]2C3=O)O1 [Rotenone]
Cellular Response (Fa2N-4 cells compared with primary human hepatocytes) [2]: Same

Cc1c(C)c2c(c(C)c1O)CCC(C)(COc1ccc(CC3SC(=O)NC3=O)cc1)O2 (stereo not shown) [Troglitazone]
Cellular Response (Fa2N-4 cells compared with primary human hepatocytes) [7]: Different
Non-toxic Compound / Toxic Compound [7]: Toxic
sensitivity of Fa2N-4 cells relative to primary hepatocytes [7]: more sensitive than primary hepatocytes

CO[C@H]1C[C@H](O[C@H]2[C@H](C)[C@@H](O[C@@H]3O[C@H](C)C[C@H](N(C)C)[C@H]3OC(C)=O)[C@@H](C)C[C@@]3(CO3)C(=O)[C@H](C)[C@@H](OC(C)=O)[C@@H](C)[C@@H](C)OC(=O)[C@@H]2C)O[C@@H](C)[C@@H]1OC(C)=O [Troleandomycin]
Cellular Response (Fa2N-4 cells compared with primary human hepatocytes) [7]: Same
Non-toxic Compound / Toxic Compound [7]: Troleandomycin

Clc1ccccc1C(c1ccccc1)(c1ccccc1)n1ccnc1 [clotrimazole]
CYP3A4 activity induction (FIG. 20) [13]: CYP3A4 induction is masked by its inhibitory effect
